According to patent USRE48842E1, “Pyrimido-pyrrolo-oxazine-dione compound inhibitors of the cystic fibrosis transmembrane conductance regulator protein and uses therefor” (The Regents of the University of California, priority 2011, dated 2021):

Tests used:
[1] = Mouse pharmacokinetics and renal accumulation (LC/MS); format: in vivo
Procedure: Mouse Pharmacokinetics and Renal Accumulation—A compound of structure (I) was formulated at 1 mg/mL in 5% DMSO, 2.5% Tween-80 and 2.5% PEG400 in H2O, based on formulations used for compounds of similar polarity and chemical properties. Male mice in a CD1 genetic background (age 8-10 weeks, 25-35 g) were administered 300 μL of the BPO-27 formulation by intraperitoneal injection. At specified times kidneys were removed following renal arterial perfusion with PBS. Kidneys were weighed, mixed with acetic acid (100 μl per 1 g tissue) and ethyl acetate (10 mL per 1 g tissue), and homogenized. The homogenate was centrifuged at 3,000 rpm for 15 min. Calibration standards were prepared in kidney homogenates from control mice to which was added known amounts of BPO-27. The ethyl acetate-containing supernatant was dried under nitrogen and the residue was reconstituted in acetonitrile:H2O (3:1) containing 0.1% formic acid. For analysis of blood and urine, fluids were diluted with equal volume of water and extracted with ethyl acetate. LC/MS analysis was carried out as described herein.
PPQ-102 was undetectable in serum, kidney, and urine at 30-60 min after intravenous bolus administration of 300 μg PPQ-102 in mice using an LC/MS assay with sensitivity better than 100 nM. […] To improve on the drug-like properties of PPQ-102, a series of compound analogs were synthesized and tested.
BPO-27 pharmacokinetics in mice was measured following bolus intraperitoneal administration in an aqueous formulation in 5% DMSO, 2.5% Tween-80 and 2.5% PEG400 in water. BPO-27 was measured by LC/MS in kidney, blood and urine. […] The assay was linear with a detection sensitivity of better than 100 nM BPO-27. […] FIG. 11C summarizes the deduced BPO-27 concentrations in kidney, blood and urine over time. The t1/2 for disappearance of the original compound was approximately 2 h.

human wildtype CFTR = human wildtype CFTR (Homo sapiens, UniProt P13569); assay: Fluorescence plate reader assay of CFTR inhibition (iodide influx); format: cell-based; parameters: expressed in transfected cells; host or cells: Fischer rat thyroid (FRT) cells; conditions: Determined by micro-plate reader assay; FRT cells co-expressing human wild type CFTR and YFP-H148Q
Chain of human wildtype CFTR (P13569 whole entry): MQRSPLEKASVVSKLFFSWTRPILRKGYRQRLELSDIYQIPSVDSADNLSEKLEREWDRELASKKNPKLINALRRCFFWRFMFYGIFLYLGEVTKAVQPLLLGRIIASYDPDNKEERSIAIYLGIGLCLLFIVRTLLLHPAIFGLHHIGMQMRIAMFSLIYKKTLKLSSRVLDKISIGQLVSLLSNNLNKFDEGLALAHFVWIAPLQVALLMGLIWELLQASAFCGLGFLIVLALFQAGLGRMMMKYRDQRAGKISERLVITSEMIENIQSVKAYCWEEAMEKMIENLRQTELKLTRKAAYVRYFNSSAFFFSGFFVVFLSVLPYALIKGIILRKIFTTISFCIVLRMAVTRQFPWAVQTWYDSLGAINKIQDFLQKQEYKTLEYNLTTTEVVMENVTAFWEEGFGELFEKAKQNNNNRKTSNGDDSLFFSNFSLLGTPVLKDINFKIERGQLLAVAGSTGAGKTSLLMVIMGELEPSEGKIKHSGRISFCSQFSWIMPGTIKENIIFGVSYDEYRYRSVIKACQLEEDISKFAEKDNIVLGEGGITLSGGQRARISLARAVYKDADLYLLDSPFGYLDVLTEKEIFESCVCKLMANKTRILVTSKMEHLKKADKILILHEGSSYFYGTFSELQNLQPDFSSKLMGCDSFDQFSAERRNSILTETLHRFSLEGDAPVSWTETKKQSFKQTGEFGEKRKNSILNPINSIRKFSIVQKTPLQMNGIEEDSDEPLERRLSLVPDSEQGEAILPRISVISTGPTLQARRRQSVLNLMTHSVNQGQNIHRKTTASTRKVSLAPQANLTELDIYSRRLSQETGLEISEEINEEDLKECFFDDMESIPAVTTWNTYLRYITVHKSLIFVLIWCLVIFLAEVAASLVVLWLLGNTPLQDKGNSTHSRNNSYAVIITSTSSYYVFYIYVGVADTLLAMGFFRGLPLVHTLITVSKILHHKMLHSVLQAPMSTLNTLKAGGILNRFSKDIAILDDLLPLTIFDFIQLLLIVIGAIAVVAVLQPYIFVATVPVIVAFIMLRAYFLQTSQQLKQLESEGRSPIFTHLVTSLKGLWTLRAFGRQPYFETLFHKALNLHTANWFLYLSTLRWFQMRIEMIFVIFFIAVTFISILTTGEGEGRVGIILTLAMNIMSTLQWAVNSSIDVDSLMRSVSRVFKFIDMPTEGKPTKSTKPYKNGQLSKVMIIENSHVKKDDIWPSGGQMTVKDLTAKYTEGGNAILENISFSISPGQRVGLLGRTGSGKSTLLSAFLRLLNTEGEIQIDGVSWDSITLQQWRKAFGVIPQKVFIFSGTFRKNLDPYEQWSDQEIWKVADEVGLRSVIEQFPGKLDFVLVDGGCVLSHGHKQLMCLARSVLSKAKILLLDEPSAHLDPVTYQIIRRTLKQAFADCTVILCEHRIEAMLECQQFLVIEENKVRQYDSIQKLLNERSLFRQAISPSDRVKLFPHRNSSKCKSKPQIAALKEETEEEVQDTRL

| SMILES | compound in serum, kidney, and urine ([1]; 30-60 min after intravenous bolus of 300 μg in mice, LC/MS sensitivity better than 100 nM) | IC50 (human wildtype CFTR) [nM] | half-life ([1]; male, CD1, mouse, in vivo, ip, 300 μg, mice, bolus intraperitoneal administration, read-out: t1/2 for disappearance of the original compound (converted)) [h] | compound concentration in kidney, blood and urine ([1]; mice, for many hours following single intraperitoneal dose) |
| --- | --- | --- | --- | --- |
| Cc1ccc(C2Nc3ccccc3-n3c(-c4ccccc4)c4c(=O)n(C)c(=O)n(C)c4c32)o1 (centres unmarked) [PPQ-102, 7,9-Dimethyl-6-(5-methylfuran-2-yl)-11-phenyl-5,6-dihydropyrimido[4′,5′-3,4]pyrrolo[1,2-a]quinoxaline-8,10-(7H,9H)-dione, reference compound] | undetectable | 250 | – | – |
| Cn1c(=O)c2c(-c3ccccc3)n3c(c2n(C)c1=O)C(c1ccc(Br)o1)Oc1ccc(C(=O)O)cc1-3 (racemic) [BPO-27, 6-(5-Bromofuran-2-yl)-7,9-dimethyl-8,10-dioxo-11-phenyl-7,8,9,10-tetrahydro-6H-benzo[b]pyrimido[4′,5′:3,4]pyrrolo[1,2-d][1,4]oxazine-2-carboxylic acid] | – | 40 | ~2 | greater than 4 nM |
